The target of series [1] is T1, USP7, Active human recombinant protein (Homo sapiens, UniProt Q93009).
T1 construct: purchased CP Lot; 20200225001
As to the kind of experiment: USP7 assay (Ubiquitin-Rhodamine 110 enzymatic assay). The class given is biochemical. Conditions: read-out: IC50. The essentials:
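Human recombinant USP7 (0.05 nM final) preincubated with compound, 10-point 3-fold series, 15 min at RT. Reaction started with 190 nM ubiquitin-rhodamine 110. Fluorescence (ex 485/em 535 nm) read kinetically 20 min. Slopes normalized to enzyme+substrate and substrate-only controls; IC50 from curve fit.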

The nature of series [2]: plasma stability (Plasma Assay Protocol). The class given is in vitro ADME. As to conditions: 37° C., t1/2 extrapolated if >50% remaining at 60 min, ∞ if near 100% remaining. How it is done:
(§1) ND refers to not disclosed.
• 1. Preheated 0.05 M sodium phosphate and 0.07 M NaCl buffer, pH 7.4. Dissolved 14.505 g/L Na2HPO4·12H2O, 1.483 g/L NaH2PO4·2H2O and 4.095 g/L NaCl in deionized water. The basic solution was then titrated with the phosphoric acid to pH 7.40. Stored in fridge up to 7 days. Checked pH on the day of experiment and adjust if outside specification of 7.4+/−0.1. • 2. Plasma preparation: • Thawed frozen plasma by placing at 37° C. quickly. Centrifuged plasma at 3,000 rpm for 8 minutes to remove clots, pipetted and pooled the supernatant as the plasma to be used in the experiment. Checked and recorded the pH of the plasma. Only used plasma within the range of pH 7.4 to pH 8. If higher than pH 8, discarded the plasma. By using a 5% CO2 incubator and PBS buffer, a pH of 7.4 was reached after the 4 hour equilibrium dialysis time. Put the plasma on ice until used. • 3. Tested compounds and reference compounds spiking solution: • 0.5 mM test compounds spiking solution A: Added 10 μL of 10 mM test compounds stock solution to 190 μL DMSO. • 0.02 mM spiking solution B: Added 40 μL of spiking solution A to 960 μL of […] Sodium phosphate buffer with 0.5% BSA.
Pre-warmed the plasma and spiking solution B at 37° C. for 5 min. Added 10 μL of pre-warmed spiking solution B into the wells designated for all the time points (5, 15, 30, 45, 60 min).
For 0-min, added 400 μL of acetonitrile (ACN) containing the internal standard (IS) to the wells of 0-min plate and then added 90 μL of plasma. Added 90 μL of pre-warmed plasma into the wells designated for the time points (0, 5, 15, 30, 45, 60 min), and started timing. At 5, 15, 30, 45, 60 min, added 400 μL of ACN containing IS to the wells of corresponding plates, respectively, to stop the reaction. After quenching, shook the plates at the vibrator (IKA, MTS 2/4) for 10 min (600 rpm/min) and then centrifuged at 5594 g for 15 min (Thermo Multifuge×3R). Transferred 50 μL of the supernatant from each well into a 96-well sample plate containing 50 μL of ultra pure water (Millipore ZMQS50F01) for LC/MS analysis.

Series [3] in a line: mouse liver microsomal stability (Microsome Assay Protocol). The class given is in vitro ADME. Conditions: pH 7.4; mouse liver microsomes, NADPH, 37° C.; read-out: MLM t1/2, min. On the procedure:
as §1
• 1. Buffer A: 1.0 L of 0.1 M monobasic Potassium Phosphate buffer containing 1.0 mM EDTA Buffer B: 1.0 L of 0.1 M Dibasic Potassium Phosphate buffer containing 1.0 mM EDTA • Buffer C: 0.1 M Potassium Phosphate buffer, 1.0 mM EDTA, pH 7.4 by titrating 700 mL of buffer B with buffer A while monitoring with a pH meter. • 2. Reference compound (Ketanserin) and test compounds spiking solution: • 500 μM spiking solution: added 10 μL of 10 mM DMSO stock solution into 190 μL ACN. • 1.5 μM spiking solution in microsomes (0.75 mg/mL): added 1.5 μL of 500 μM spiking solution and 18.75 μL of 20 mg/mL liver microsomes into 479.75 μL of Buffer C on ice. • 3. Prepared NADPH stock solution (6 mM) by dissolving NADPH into buffer C. Dispensed 30 μL of 1.5 μM spiking solution containing 0.75 mg/mL microsomes solution to the assay plates designated for different time points (0-, 5-, 15-, 30-, 45-min) on ice. For 0-min, added 135 μL of ACN containing IS to the wells of 0-min plate and then added 15 μL of NADPH stock solution (6 mM). Pre-incubated all other plates at 37° C. for 5 minutes. Added 15 μL of NADPH stock solution (6 mM) to the plates to start the reaction and timing. At 5-min, 15-min, 30-min, and 45-min, added 135 μL of ACN containing IS to the wells of corresponding plates, respectively, to stop the reaction. After quenching, shook the plates at the vibrator (IKA, MTS 2/4) for 10 min (600 rpm/min) and then centrifuged at 5594 g for 15 min (Thermo Multifuge×3R). Transferred 50 μL of the supernatant from each well into a 96-well sample plate containing 50 μL of ultra pure water (Millipore, ZMQS50F01) for LC/MS analysis.

By IC50 is commonly meant the concentration at which inhibition is half-maximal.

T1 sequence (Q93009 whole entry): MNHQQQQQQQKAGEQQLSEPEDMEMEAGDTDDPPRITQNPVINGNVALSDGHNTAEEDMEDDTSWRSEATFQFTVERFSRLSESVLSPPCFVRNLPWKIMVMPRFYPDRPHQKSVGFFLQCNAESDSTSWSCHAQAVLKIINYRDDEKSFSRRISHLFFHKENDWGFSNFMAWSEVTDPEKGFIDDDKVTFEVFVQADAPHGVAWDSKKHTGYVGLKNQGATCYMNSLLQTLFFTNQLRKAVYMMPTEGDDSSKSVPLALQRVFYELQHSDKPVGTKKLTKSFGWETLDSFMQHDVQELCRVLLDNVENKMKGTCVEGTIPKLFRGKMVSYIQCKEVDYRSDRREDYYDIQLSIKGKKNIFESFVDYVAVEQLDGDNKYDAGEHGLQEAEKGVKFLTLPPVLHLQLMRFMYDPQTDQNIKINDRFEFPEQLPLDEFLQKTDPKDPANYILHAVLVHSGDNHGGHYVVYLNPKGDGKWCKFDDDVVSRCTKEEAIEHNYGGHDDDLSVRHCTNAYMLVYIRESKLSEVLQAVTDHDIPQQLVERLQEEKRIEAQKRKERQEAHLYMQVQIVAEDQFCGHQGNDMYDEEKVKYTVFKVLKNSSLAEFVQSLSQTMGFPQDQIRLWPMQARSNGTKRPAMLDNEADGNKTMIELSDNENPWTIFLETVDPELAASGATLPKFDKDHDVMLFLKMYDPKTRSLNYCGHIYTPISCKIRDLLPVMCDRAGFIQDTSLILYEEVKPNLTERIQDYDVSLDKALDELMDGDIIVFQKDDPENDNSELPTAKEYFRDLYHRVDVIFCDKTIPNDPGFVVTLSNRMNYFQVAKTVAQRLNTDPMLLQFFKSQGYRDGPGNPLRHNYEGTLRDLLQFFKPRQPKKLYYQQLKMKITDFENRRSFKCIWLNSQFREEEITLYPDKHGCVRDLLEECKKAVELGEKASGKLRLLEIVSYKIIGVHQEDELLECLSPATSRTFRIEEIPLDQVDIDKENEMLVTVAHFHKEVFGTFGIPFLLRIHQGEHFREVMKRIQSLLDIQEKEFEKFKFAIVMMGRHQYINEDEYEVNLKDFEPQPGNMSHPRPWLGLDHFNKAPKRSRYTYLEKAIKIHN

With `O=C(NCCC[C@@H](Cc1ccccc1)C(=O)N1CCC(O)(Cn2cnc(NCCN3CCCC3)cc2=O)CC1)c1ccc2c(Cl)ccnc2c1` [Compound 13, N-(4-benzyl-5-(4-hydroxy-4-((6-oxo-4-(2-(pyrrolidin-1-yl)ethylamino)pyrimidin-1(6H)-yl)methyl)piperidin-1-yl)-5-oxopentyl)-4-chloroquinoline-7-carboxamide], the IC50 in series [1] fell in the range of 20 to 100 nM. The half-life at 2 µM in series [2] was 91.9 min.

Regarding `C=CC(=O)Nc1ccccc1-c1ccc(C(=O)N2CCC(O)(Cn3cnc4cc(NC(=O)CCN5CCN(C)CC5)ccc4c3=O)CC2)cc1` [Compound 24, N-(4′-(4-hydroxy-4-((7-(3-(4-methylpiperazin-1-yl)propanamido)-4-oxoquinazolin-3(4H)-yl)methyl)piperidine-1-carbonyl)biphenyl-2-yl)acrylamide], the IC50 in series [1] was greater than 1000 nM. For the same compound, in series [2], the half-life at 2 µM was 23 min.

Turning to `CC(C)c1cnc2cc(C(=O)NCCC[C@H](Cc3ccccc3)C(=O)N3CCC(O)(Cn4cnc5cc(NC(=O)CCN(C)C)ccc5c4=O)CC3)ccc2c1Cl` [Compound 119], the IC50 in series [1] was less than 20 nM. Further, the half-life at 1 µM in series [3] came to 3.04 min.

Turning to `O=C(NCCCC(Cn1ccc(F)n1)C(=O)N1CCC(O)(Cn2cnc3ccccc3c2=O)CC1)c1ccc2c(Cl)c(C(=O)NC3CC3)cnc2c1` (stereo not drawn), the IC50 in series [1] lay in the range of 20 to 100 nM. The half-life at 1 µM in series [3] worked out at 4.61 min.

In the case of `Cc1nc2c(=O)n(CC3(O)CCN(C(=O)C4CCN(CCNC(=O)c5ccc6c(Cl)ccnc6c5)CC4c4ccccc4)CC3)cnc2n1-c1ccc(F)cc1` (stereo not drawn) [Compound 110], in series [1], the half-inhibitory concentration (IC50) was in the range of 100 to 1000 nM. Also, the half-life at 1 µM in series [3] worked out at 2.21 min.

As to `CN(C)CCCOc1ccc2c(=O)n(CC3(O)CCN(C(=O)[C@H](CCCNC(=O)c4ccc5c(Cl)c(C#N)cnc5c4)Cc4ccccc4)CC3)cnc2c1`, the 50% inhibitory concentration (IC50) in series [1] was less than 20 nM. Moreover, the half-life at 1 µM in series [3] is 1.67 min.

Regarding `CN(C)CC(=O)Nc1ccc2c(=O)n(CC3(O)CCN(C(=O)C(CCCNC(=O)c4ccc5c(Cl)c6c(nc5c4)CCN(C)C6)Cc4ccccc4)CC3)cnc2c1` (stereo not drawn) [Compound 32, N-(4-benzyl-5-(4-((7-(2-(dimethylamino)acetamido)-4-oxoquinazolin-3(4H)-yl)methyl)-4-hydroxypiperidin-1-yl)-5-oxopentyl)-10-chloro-2-methyl-1,2,3,4-tetrahydrobenzo[b][1,6]naphthyridine-7-carboxamide], the IC50 in series [1] was 20 to 100 nM. Moreover, in series [3], the half-life at 1 µM was 2.5 min.

Take `CN(C)CCC(=O)Nc1ccc2c(=O)n(CC3(O)CCN(C(=O)C(CCCNC(=O)c4ccc5c(Cl)cc(C(N)=O)nc5c4)Cc4ccccc4)CC3)cnc2c1` (stereo not drawn) [Compound 71]: in series [1], the half-maximal inhibitory concentration (IC50) was in the range of 100 to 1000 nM. In addition, the half-life at 1 µM in series [3] amounted to 54.6 min.

On to `Cn1nc2c(=O)n(CC3(O)CCN(C(=O)C(CCCNC(=O)c4ccc5c(Cl)ccnc5c4)Cc4ccccc4)CC3)cnc2c1-c1cccc(C#N)c1` (stereo not drawn) [Compound 10, N-(4-benzyl-5-(4-((3-(3-cyanophenyl)-2-methyl-7-oxo-2,7-dihydro-6H-pyrazolo[4,3-d]pyrimidin-6-yl)methyl)-4-hydroxypiperidin-1-yl)-5-oxopentyl)-4-chloroquinoline-7-carboxamide], for which the IC50 in series [1] is 20 to 100 nM. In addition, the half-life at 1 µM in series [3] amounted to 1.5 min.

As to `CN(C)CCC(=O)Nc1ccc2c(=O)n(CC3(O)CCN(C(=O)C(CCCNC(=O)c4ccc5c(Cl)c6c(nc5c4)COCC6)Cc4ccccc4)CC3)cnc2c1` (stereo not drawn) [Compound 89], the concentration for half-maximal inhibition (IC50) in series [1] lay within 20 to 100 nM. The half-life at 1 µM in series [3] came to 3.34 min.

Consider `CN(C)CCC(=O)Nc1ccc2c(=O)n(CC3(O)CCN(C(=O)C(CCCNC(=O)c4ccc5c(Cl)cc(O)nc5c4)Cc4ccccc4)CC3)cnc2c1` (stereo not drawn) [Compound 65], for which, in series [1], the half-maximal inhibitory concentration (IC50) is 100 to 1000 nM. Further, in series [3], the half-life at 1 µM was found to be 12.8 min.

Consider `CN(C)CCC(=O)Nc1ccc2c(=O)n(CC3(O)CCN(C(=O)c4cn(CCNC(=O)c5ccc6c(Cl)ccnc6c5)nc4C4CC4)CC3)cnc2c1` [Compound 56, 4-chloro-N-(2-(3-cyclopropyl-4-(4-((7-(3-(dimethylamino)propanamido)-4-oxoquinazolin-3(4H)-yl)methyl)-4-hydroxypiperidine-1-carbonyl)-1H-pyrazol-1-yl)ethyl)quinoline-7-carboxamide], for which the IC50 in series [1] is greater than 1000 nM. Further, the half-life at 1 µM in series [3] came out at 95.9 min.

For the compound `CN(C)CCCOc1ccc2c(=O)n(CC3(O)CCN(C(=O)[C@@H](CCCNC(=O)c4ccc5c(Cl)c(C(N)=O)cnc5c4)Cc4ccccc4)CC3)cnc2c1`, in series [1], the IC50 is less than 20 nM. In addition, the half-life at 1 µM in series [3] was 30.2 min.

Take `CN(C)CCCOc1ccc2c(=O)n(CC3(O)CCN(C(=O)C(Cc4ccccc4)N(C)CCNC(=O)c4ccc5c(Cl)c(C(N)=O)cnc5c4)CC3)cnc2c1` (stereo not drawn): the 50% inhibitory concentration (IC50) in series [1] was less than 20 nM. In series [3], the half-life at 1 µM is 36.4 min.

As for `CN(C)CCCOc1ccc2c(=O)n(CC3(O)CCN(C(=O)C(CCCNC(=O)c4ccc5c(Cl)c6c(nc5c4)CCN(C)C6=O)Cc4ccccc4)CC3)cnc2c1` (stereo not drawn), the IC50 in series [1] lay within 20 to 100 nM. Further, the half-life at 1 µM in series [3] turned out to be 14.4 min.

For `CN(C)CCCOc1ccc2c(=O)n(CC3(O)CCN(C(=O)C(Cn4ccc(F)n4)N(C)CCNC(=O)c4ccc5c(Cl)c(C(N)=O)cnc5c4)CC3)cnc2c1` (stereo not drawn), the half-inhibitory concentration (IC50) in series [1] fell in the range of 20 to 100 nM. For the same compound, the half-life at 1 µM in series [3] came out at 106 min.

Take `CN(C)CCC(=O)Nc1ccc2c(=O)n(CC3(O)CCN(C(=O)C(CCCNC(=O)c4ccc5c(Cl)ccnc5c4)Cc4ccc(F)cc4)CC3)cnc2c1` (stereo not drawn) [Compound 81]: the IC50 in series [1] lay in the range of 20 to 100 nM. The half-life at 1 µM in series [3] was determined as 11.8 min.

On to `CN(C)CCCOc1ccc2c(=O)n(CC3(O)CCN(C(=O)C(Cc4ccccc4)NCCNC(=O)c4ccc5c(Cl)c(C(N)=O)cnc5c4)CC3)cnc2c1` (stereo not drawn), for which, in series [1], the IC50 was less than 20 nM. Besides, the half-life at 1 µM in series [3] was found to be 65.5 min.

For the compound `CN(C)CC(=O)Nc1ccc2c(=O)n(CC3(O)CCN(C(=O)C(CCCNC(=O)c4ccc5c(Cl)c6c(nc5c4)CN(C)C6)Cc4ccccc4)CC3)cnc2c1` (stereo not drawn) [Compound 31, N-(4-benzyl-5-(4-((7-(2-(dimethylamino)acetamido)-4-oxoquinazolin-3(4H)-yl)methyl)-4-hydroxypiperidin-1-yl)-5-oxopentyl)-9-chloro-2-methyl-2,3-dihydro-1H-pyrrolo[3,4-b]quinoline-6-carboxamide], the IC50 in series [1] was 100 to 1000 nM. For the same compound, in series [3], the half-life at 1 µM was 2.9 min.

For `CN(C)CCC(=O)Nc1ccc2c(=O)n(CC3(O)CCN(C(=O)c4cn(CCNC(=O)c5ccc6c(Cl)ccnc6c5)nc4-c4ccccc4)CC3)cnc2c1` [Compound 55, 4-chloro-N-(2-(4-(4-((7-(3-(dimethylamino)propanamido)-4-oxoquinazolin-3(4H)-yl)methyl)-4-hydroxypiperidine-1-carbonyl)-3-phenyl-1H-pyrazol-1-yl)ethyl)quinoline-7-carboxamide], the IC50 in series [1] is greater than 1000 nM. The half-life at 1 µM in series [3] turned out to be 35.6 min.

For the compound `CN(C)CCCOc1ccc2c(=O)n(CC3(O)CCN(C(=O)C(CCCNC(=O)c4ccc5c(Cl)c6c(nc5c4)C(C)(C)NC6=O)Cc4ccccc4)CC3)cnc2c1` (stereo not drawn), the concentration for half-maximal inhibition (IC50) in series [1] was greater than 1000 nM. Besides, the half-life at 1 µM in series [3] came to 16.3 min.
